The results in this text go back to patent EP4759807A1, “PROTEOLYSIS TARGETING CHIMERA COMPOUND FOR DEGRADING IRAK4 AND USE THEREOF” (Shenzhen Zhongge Biological Technology Co., Ltd., priority 2023, dated 2025).

The target of experiment [1] is T1, IRAK4 (Homo sapiens, UniProt Q9NWZ3).
T1 sequence (Q9NWZ3 1-460): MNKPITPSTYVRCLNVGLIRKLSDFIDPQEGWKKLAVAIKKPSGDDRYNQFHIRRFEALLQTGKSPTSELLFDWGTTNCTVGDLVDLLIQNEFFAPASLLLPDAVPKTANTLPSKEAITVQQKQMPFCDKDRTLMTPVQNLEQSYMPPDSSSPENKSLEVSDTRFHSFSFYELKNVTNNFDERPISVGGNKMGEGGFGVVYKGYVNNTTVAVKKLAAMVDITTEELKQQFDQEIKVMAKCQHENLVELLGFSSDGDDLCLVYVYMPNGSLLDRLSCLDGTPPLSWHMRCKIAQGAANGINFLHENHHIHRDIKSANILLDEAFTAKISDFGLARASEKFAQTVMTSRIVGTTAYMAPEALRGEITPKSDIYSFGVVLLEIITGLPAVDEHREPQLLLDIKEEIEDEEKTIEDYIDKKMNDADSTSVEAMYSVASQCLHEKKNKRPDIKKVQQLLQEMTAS
The experiment is described as follows: WB detection of proteolysis (Western Blot, THP-1 cells). Format: cell-based. Particulars: Western Blot, THP-1 cells, 24 h. Summed up:
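IRAK4 level in RIPA lysates read by Western blot with Odyssey imaging; values from bell-shaped non-linear fit with two four-parameter sections (Plateau1, Plateau2, Dip, LogEC50_1/2, nH1/2).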
A general note: A western blot detects proteins with antibodies after separation by electrophoresis.

The target of experiment [2] is T2, IRAK4 (Mus musculus, UniProt Q8R4K2).
T2 sequence (Q8R4K2 1-459): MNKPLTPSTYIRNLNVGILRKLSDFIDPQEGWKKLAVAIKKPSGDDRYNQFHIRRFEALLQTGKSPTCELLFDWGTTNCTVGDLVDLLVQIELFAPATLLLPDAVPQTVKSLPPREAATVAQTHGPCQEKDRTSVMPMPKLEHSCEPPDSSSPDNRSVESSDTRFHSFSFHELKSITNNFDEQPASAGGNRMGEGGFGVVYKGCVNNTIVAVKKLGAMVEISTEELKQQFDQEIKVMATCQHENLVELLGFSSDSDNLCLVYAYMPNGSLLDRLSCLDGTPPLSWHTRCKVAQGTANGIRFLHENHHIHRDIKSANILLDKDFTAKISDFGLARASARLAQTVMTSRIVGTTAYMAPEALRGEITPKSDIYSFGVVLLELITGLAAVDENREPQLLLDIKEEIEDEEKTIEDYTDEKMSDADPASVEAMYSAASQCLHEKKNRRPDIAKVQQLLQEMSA
Particulars: Balb/c mice, 24 h.
Protocol: Experiment materials: Female Balb/c mice, 6-8 weeks old, 18-20 grams were used in the experiment and were provided by Vital River Laboratory Animal Technology Co., Ltd.
Experimental method: The experiment started after the experimental animals were acclimated to the animal facility environment for 3 days. […] After 24 h, the animals were euthanized, and whole blood and spleen tissue were collected. The whole blood was temporarily placed on wet ice for subsequent PBMC extraction, and the spleen tissue was quickly placed in dry ice. PBMC extraction: 1.5 ml of red blood cell lysis buffer was added to the whole blood, and the obtained mixture was tapped with fingers for mixing, placed at room temperature in the dark for 5 min, and centrifuged at 400 g for 5 min, and the supernatant was discarded. The above steps were repeated twice. Then, 1.5 ml of DPBS was added and mixed uniformly. The mixture was centrifuged at 400 g for 5 min, and the obtained precipitate was PBMC. The PBMC was stored in a -80°C refrigerator for subsequent Western blot analysis. PBMC sample processing: The PBMC samples were placed on wet ice. 50 µL of lysis buffer was separately added to lyse the samples for 30 min, and the mixture was centrifuged at 12500 rpm for 15 min. The protein was quantified by the BCA method. […] The protein was quantified by BCA method. […]

The subject of experiment [3] is IFN-γ, IL-1β, IL-6, IL-10, IL-12p70, TNF-α and IL-23 secretion by hPBMC. The experiment is described as follows: Inhibition of LPS-induced secretion of multiple cytokines by human-derived PBMC (MSD detection). Format: cell-based. Particulars: 8 h compound, then LPS 2 ng/mL 16 h; compared with KT474. On the procedure:
Experiment materials: Human-derived peripheral blood mononuclear cells (hPBMC) were provided by Hemacare Donor Center.
Thawing and plating PBMCs: The frozen PBMC was removed from liquid nitrogen, thawed in a 37°C water bath kettle, then resuspended with 10 mL of complete medium, and centrifuged at 350 g at room temperature for 5 min, and the supernatant was discarded. The cells were resuspended with 5 mL of complete medium, and the cells were counted. The cells were diluted to 2 × 10^6/mL based on the counting results, and 0.1 mL (2 × 10^5 cells) was added to each well of the 96-well plate.
After uniform mixing, incubation was performed in an incubator at 37°C and 5% CO2 for 8 h.
LPS induction: After 8 h, 50 µL of LPS was added to all wells to a final concentration of 2 ng/mL. After uniform mixing, incubation was further performed in an incubator at 37°C and 5% CO2 for 16 h. […]
MSD detection: The buffer was added to the freeze-dried human inflammatory factor standard mixture to prepare a highest concentration standard (standard 1), and then serial 4-fold dilutions were performed and a standard with a concentration of 0 was prepared (a total of 10 concentrations). […] The plate was washed 3 times, and then 150 µL of 2× reading buffer was added and the plate was read using an MSD instrument.

Some results are limits rather than exact numbers.

In the case of `Cn1c(=O)n(C2CCC(=O)NC2=O)c2cccc(N3CCC(N4CCN(C[C@H]5CC[C@H](n6cc(-n7cc(-c8cnn9ccc(N%10CCC[C@H](O)C%10)nc89)nn7)c(C(F)F)n6)CC5)CC4)CC3)c21` (some centres unmarked) [Example 146], the DC50 in experiment [1] (read-out: DC50) is less than 10 nM. Besides, in experiment [1] (read-out: Dmax), the Dmax was more than 70%. The “expression level of IRAK4 protein in the spleen and PBMC” value in experiment [2] (single oral dose 10, 30, 100 mg/kg, compared with the blank control group) is given as “significantly inhibit”. Further, the “proteolysis ability for spleen IRAK4” value in experiment [2] (single oral dose, three doses of 10, 30, and 100 mpk, compared with KT474) is “significantly superior to KT474”. In experiment [3], the “ability to inhibit the secretion of multiple cytokines by human-derived PBMC” value was “significantly better than that of positive reference KT474”.
